# Test results published in article PMC4820820, “CETSA screening identifies known and novel thymidylate synthase inhibitors and slow intracellular activation of 5-fluorouracil” (Nature Communications, 2016).
# Columns and labels:
# [1] = biological target: T1, human thymidylate synthase (TS) (Homo sapiens, UniProt P04818); assay: ITDRF CETSA at 50 °C, AlphaScreen detection, live K562 cells; type: cell-based; conditions: 2 h preincubation, 50 °C, unit taken from curve axis log [cmp] (M), read-out: ITDRF CETSA (hit confirmation)
# T1 construct: screening in live, non-engineered cells expressing thymidylate synthase; endogenous in cells; host or cells: K562 (human myelogenous leukemia) cells
# T1 sequence (P04818 2-313 limits assumed): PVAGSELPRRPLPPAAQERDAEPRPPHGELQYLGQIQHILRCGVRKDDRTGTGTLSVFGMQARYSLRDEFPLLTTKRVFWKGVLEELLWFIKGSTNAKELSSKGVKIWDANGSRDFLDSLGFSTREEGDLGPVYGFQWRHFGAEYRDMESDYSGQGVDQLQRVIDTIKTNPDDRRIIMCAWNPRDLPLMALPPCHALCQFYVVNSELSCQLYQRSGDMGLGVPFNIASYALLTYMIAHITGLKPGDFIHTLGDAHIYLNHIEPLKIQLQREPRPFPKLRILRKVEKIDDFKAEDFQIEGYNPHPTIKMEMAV
# Protocol: For the […] experiments 11-point dose-response curves with three-fold difference in concentration between wells were generated using the Bravo liquid handling system (all serial dilutions were done in 100% DMSO). […] The concentration of DMSO was 0.5% in all samples. […] The assay ready plates were prepared as outlined above for the screen.
# The screen procedure started with the addition of 5 μl of a suspension of K562 cells at a density of 10 million cells per ml to all wells of a 384 well hardshell PCR plate (HSR480, BIORAD) using an electronic multichannel pipette (Biohit). […] For the time-course experiments the incubation times were altered to include also 10 min, 30 min and 6 h. […] After the incubation step the plates were transiently heated at 50 °C for 3 min followed by a controlled cooling to 20 °C for 1 min using a real-time PCR machine (LightCycler480 system, Roche). Plate handling was then as described above for the thermal aggregation experiments. The data were analyzed using microsoft excel and GraphPad Prism 6.
# A calculation of the average and standard error of means for each set of controls also allowed an illustration of how these responses varied over the 32 screening plates. The Z′ factor[38] is commonly used as a measure of how well the assay separates between the controls and this was calculated as described based on the calculated averages and standard deviations of the controls on a per plate basis. For the Tagg shift and the […] experiments the data were analyzed in GraphPad Prism using the Boltzmann sigmoid equation and the saturation binding curve (rectangular hyperbola; binding isotherm) function, respectively. As already discussed[14] these methods make use of equilibrium models for data analysis although the methodology depends on the irreversible aggregation of denatured material. For this reason we refer to the observed responses as apparent and isothermal dose-response fingerprints and are careful with any quantitative interpretations, being well aware of their dependency on experimental conditions. Experiments are on-going to address the quantitative interpretation of CETSA data.
# TS = TS (Homo sapiens, UniProt P04818); assay: Surface plasmon resonance; type: binding; design: His6 tag with TEV site (vector-encoded by pNIC28-Bsa4); made in house; host or cells: Rosetta BL21-DE3 Escherichia coli; conditions: 200 μM dUMP, 20 nM to 10 μM compound; signal does not saturate
# TS, sequence (P04818 whole entry): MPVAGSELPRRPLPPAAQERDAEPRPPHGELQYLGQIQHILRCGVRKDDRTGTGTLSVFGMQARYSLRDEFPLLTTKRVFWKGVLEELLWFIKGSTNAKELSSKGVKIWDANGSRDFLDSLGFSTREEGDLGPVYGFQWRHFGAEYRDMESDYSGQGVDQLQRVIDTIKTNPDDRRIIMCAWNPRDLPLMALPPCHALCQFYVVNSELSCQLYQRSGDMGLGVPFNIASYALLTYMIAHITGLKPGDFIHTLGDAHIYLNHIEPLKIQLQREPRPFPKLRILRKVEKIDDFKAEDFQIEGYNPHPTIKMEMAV
# Protocol: A concentration series (20 nM to 10 μM) of CBK115334 was injected over the prepared surface for 60 s and allowed to dissociate for 60 s with a flow rate of 70 μl min^−1 at 25 °C. The assay buffer was 20 mM HEPES, 150 mM NaCl, pH 7.5 and 0.005% Tween-20 supplemented with 1% DMSO and 200 μM dUMP. Response data was processed using the BIAevaluation software. Responses were double referenced and solvent-corrected. The data sets were fitted to 1:1 steady-state model for determination of binding constants.
binding to TS by surface plasmon resonance (steady state affinity) (TS),Compound,EC50 [1]
–,"Nc1ncn([C@H]2C[C@H](O)[C@@H](CO)O2)c(=O)n1 [decitabine, 5-Aza-deoxycytidine]",6.87e-08 M
low μM range,"Cc1cc(O)nc2sc(C(=O)c3ccccc3)c(N)c12 [CBK115334, 3-amino-2-benzoyl-4-methylthieno(2,3-b)pyridin-6-ol]",–
